Assay results as given in patent EP1688137A1, “SPM 927 for add-on therapy of schizophrenia” (SCHWARZ PHARMA AG, priority 2005, dated 2006).

Tested on: C57BL/6J mice
Experiment: prepulse inhibition (PPI) of the acoustic startle reflex, animal model for schizophrenia
Type: in vivo
Settings: 30 min prior to testing, n=12
Procedure: Some anti-epileptic drugs have proven pre-clinical and/or clinical efficacy as add-on therapy for schizophrenia. SPM 927 was tested in a simple animal model with predictive validity for schizophrenia (i.e. prepulse inhibition (PPI) of the acoustic startle reflex). SPM 927 was tested alone and in combination with the atypical antipsychotic drug clozapine.
The acoustic startle is an unconditioned reflex response to an external auditory stimulation. PPI refers to the reduction in the startle response caused by the presentation of a low-intensity auditory stimulus prior to the startle stimulus. The PPI paradigm is the choice for the study of schizophrenia and antipsychotic action due to the similarities between the results from human and rodent studies. Antipsychotic drugs, such as clozapine, result in a dose-dependent increase in PPI in mice. Thus, an increase of PPI in normal mice may be indicative of antipsychotic efficacy.
C57BL/6J mice obtained from the Jackson Laboratory, Bar Harbor, Maine were received at the age of 6 weeks and were assigned unique identification numbers (tail marked). Animals were housed 4 per cage in polycarbonate cages with filter tops and acclimated for 7 days. All animals were examined, handled, and weighed prior to initiation of the study to assure adequate health and suitability and to minimize non-specific stress associated with manipulation.
During the course of the study, 12/12 light/dark cycles and a room temperature of 20 to 23°C were maintained with a relative humidity maintained around 50%. Chow and water were provided ad libitum for the duration of the study. Each mouse was randomly assigned across the treatment groups and balanced by cage numbers. The test was performed during the animal's light cycle phase. Twelve animals were used in each treatment group.
SPM 927 was dissolved in Saline (0.9% NaCl in sterile H2O). Clozapine was dissolved in 1 % Tween 80 in sterile H2O at a final pH of 6.0. All compounds were administered intraperitoneal (ip) (volume injection: 10 ml/kg). SPM 927 was administered at doses of 1, 10 and 30 mg/kg and Clozapine at a dose of 3 mg/kg. Doses are expressed as mg of salt. Control mice were administered saline (vehicle 1, VEH 1) or 1% Tween 80 (vehicle 2, VEH 2) at a pH of 6.0. The drug treatments were balanced across days and the animals only used once. All tests were conducted blind. All compounds were administered 30 mins prior to testing.
Animals were placed in the PPI chambers (Med Associates) for a 5 min session of white noise (70 dB) habituation. After the acclimation period the test session was automatically started. The session started with an habituation block of 6 presentations of the startle stimulus alone, followed by 10 PPI blocks of 6 different types of trials. Trial types are: null (no stimuli), startle (120 dB), startle plus prepulse (4, 8 and 12 dB over background noise i.e. 74, 78 or 82 dB) and prepulse alone (82 dB). Trial types were presented at random within each block. Each trial started with a 50 ms null period during which baseline movements are recorded. There was a subsequent 20 ms period during which prepulse stimuli were presented and responses to the prepulse measured. After further 100 ms the startle stimuli were presented for 40 ms and responses recorded for 100 ms from startle onset. Responses were sampled every ms. The inter-trial interval was variable with an average of 15 s (range from 10 to 20 s). In startle alone trials the basic auditory startle is measured and in prepulse plus startle trials the amount of inhibition of the normal startle is determined and expressed as a percentage of the basic startle response (from startle alone trials), excluding the startle response of the first habituation block. Eight animals were tested at one time.
Twelve animals were tested in each group. […]

Compound | Mean PPI (SPM 927 3 mg/kg ip / VEH 2 (alone)) | Mean PPI (SPM 927 3 mg/kg ip in combination with clozapine 3 mg/kg ip) | Mean PPI (SPM 927 10 mg/kg ip / VEH 2 (alone)) | Mean PPI (SPM 927 10 mg/kg ip in combination with clozapine 3 mg/kg ip) | Mean PPI (SPM 927 30 mg/kg ip / VEH 2 (alone)) | Mean PPI (SPM 927 30 mg/kg ip in combination with clozapine 3 mg/kg ip) | Mean PPI (VEH 1 / clozapine 3 mg/kg ip, PPI expressed as percentage of basic startle response)
COC[C@@H](NC(C)=O)C(=O)NCc1ccccc1 [SPM 927, (R)-2-acetamide-N-benzyl-3-methoxypropionamide] | 29±3 | 43±2 | 34±3 | 45±2 | 27±2 | 57±5 | –
CN1CCN(C2=Nc3cc(Cl)ccc3Nc3ccccc32)CC1 [CLOZ, clozapine, reference compound] | – | – | – | – | – | – | 45±2
